Assay results as given in US11141413B2, “Method of treating renal cell carcinoma using N-(4-(6,7-dimethoxyquinolin-4-yloxy)phenyl)-N′-(4-fluorophenyl)cyclopropane-1,1-dicarboxamide, (2S)-hydroxybutanedioate” (Exelixis, Inc., priority 2016, dated 2021).

Tested on: patients with advanced renal cell carcinoma
Conditions: in vivo
Experimental: Treatment modifications, including interruptions and dose reductions, were allowed to manage adverse events. […] Patients were allowed to continue study treatment beyond radiographic progression at the discretion of the investigator. On-study crossover between treatment groups was not permitted. Safety evaluations, including physical examination, vital signs, and laboratory assessments, were conducted every 2 weeks for the first 8 weeks and then every 4 weeks thereafter. ECG assessments were performed every 4 weeks for the first 8 weeks and then every 12 weeks. A safety follow-up visit was scheduled 30 days after treatment discontinuation. Adverse events were assessed by investigators and graded according to CTCAE version 4.0.
Safety analyses were limited to patients who received any amount of study treatment.

Compound: CO[C@H]1C[C@@H]2CC[C@@H](C)[C@@](O)(O2)C(=O)C(=O)N2CCCC[C@H]2C(=O)O[C@H]([C@H](C)C[C@@H]2CC[C@@H](OCCO)[C@H](OC)C2)CC(=O)[C@H](C)/C=C(\C)[C@@H](O)[C@@H](OC)C(=O)[C@H](C)C[C@H](C)/C=C/C=C/C=C/1C [everolimus]
- ALP increased, All Grades (human): 29%
- ALP increased, Grade 3-4 (human): 1%
- ALT increased, All Grades (human): 32%
- ALT increased, Grade 3-4 (human): <1%
- AST increased, All Grades (human): 40%
- AST increased, Grade 3-4 (human): <1%
- Abdominal pain, All Grades (human): 13%
- Abdominal pain, Grade 1-2 (human): 27 (8) n (%)
- Abdominal pain, Grade 3 (human): 5 (2) n (%)
- Abdominal pain, Grade 3-4 (human): 2%
- Abdominal pain, Grade 4 (human): 0 n (%)
- Absolute neutrophil count decreased, All Grades (human): 17%
- Absolute neutrophil count decreased, Grade 3-4 (human): <1%
- Adverse reactions led to study treatment being held (human): 59%
- Adverse reactions led to study treatment discontinuation (human): 10%
- Alanine aminotransferase increased, Grade 1-2 (human): 20 (6) n (%)
- Alanine aminotransferase increased, Grade 3 (human): 1 (<1) n (%)
- Alanine aminotransferase increased, Grade 4 (human): 0 n (%)
- Anemia, All Grades (human): 38%
- Anemia, Grade 1-2 (human): 73 (23) n (%)
- Anemia, Grade 3 (human): 53 (17) n (%)
- Anemia, Grade 3-4 (human): 16%
- Anemia, Grade 4 (human): 0 n (%)
- Anemia, all grades (human): 126 (39%) n (%)
- Anemia, grade 3 or 4 (human): 53 [17%] n [%]
- Any AE, Grade 1-2 (human): 103 (32) n (%)
- Any AE, Grade 3 (human): 167 (52) n (%)
- Any AE, Grade 4 (human): 26 (8) n (%)
- Arthralgia, All Grades (human): 14%
- Arthralgia, Grade 1-2 (human): 46 (14) n (%)
- Arthralgia, Grade 3 (human): 4 (1) n (%)
- Arthralgia, Grade 3-4 (human): 1%
- Arthralgia, Grade 4 (human): 0 n (%)
- Aspartate aminotransferase increased, Grade 1-2 (human): 19 (6) n (%)
- Aspartate aminotransferase increased, Grade 3 (human): 1 (<1) n (%)
- Aspartate aminotransferase increased, Grade 4 (human): 0 n (%)
- Asthenia, All Grades (human): 16%
- Asthenia, Grade 1-2 (human): 46 (14) n (%)
- Asthenia, Grade 3 (human): 8 (3) n (%)
- Asthenia, Grade 3-4 (human): 2%
- Asthenia, Grade 4 (human): 0 n (%)
- Back pain, Grade 1-2 (human): 41 (13) n (%)
- Back pain, Grade 3 (human): 7 (2) n (%)
- Back pain, Grade 4 (human): 0 n (%)
- Blood creatinine increased, Grade 1-2 (human): 39 (12) n (%)
- Blood creatinine increased, Grade 3 (human): 0 n (%)
- Blood creatinine increased, Grade 4 (human): 0 n (%)
- Constipation, All Grades (human): 19%
- Constipation, Grade 1-2 (human): 64 (20) n (%)
- Constipation, Grade 3 (human): 1 (<1) n (%)
- Constipation, Grade 3-4 (human): <1%
- Constipation, Grade 4 (human): 0 n (%)
- Cough, All Grades (human): 33%
- Cough, Grade 1-2 (human): 107 (33) n (%)
- Cough, Grade 3 (human): 3 (<1) n (%)
- Cough, Grade 3-4 (human): <1%
- Cough, Grade 4 (human): 0 n (%)
- Creatinine increased, All Grades (human): 71%
- Creatinine increased, Grade 3-4 (human): 0%
- Decreased appetite, All Grades (human): 34%
- Decreased appetite, Grade 1-2 (human): 111 (35) n (%)
- Decreased appetite, Grade 3 (human): 3 (<1) n (%)
- Decreased appetite, Grade 3-4 (human): <1%
- Decreased appetite, Grade 4 (human): 0 n (%)
- Decreased appetite, all grades (human): 114 (3-5%) n (%)
- Diarrhea, All Grades (human): 28%
- Diarrhea, Grade 1-2 (human): 85 (26) n (%)
- Diarrhea, Grade 3 (human): 7 (2) n (%)
- Diarrhea, Grade 3-4 (human): 2%
- Diarrhea, Grade 4 (human): 0 n (%)
- Discontinuation due to a primary reason of AE (excluding disease progression) (human): 10%
- Dizziness, All Grades (human): 7%
- Dizziness, Grade 1-2 (human): 21 (7) n (%)
- Dizziness, Grade 3 (human): 0 n (%)
- Dizziness, Grade 3-4 (human): 0%
- Dizziness, Grade 4 (human): 0 n (%)
- Dry skin, All Grades (human): 10%
- Dry skin, Grade 1-2 (human): 35 (11) n (%)
- Dry skin, Grade 3 (human): 0 n (%)
- Dry skin, Grade 3-4 (human): 0%
- Dry skin, Grade 4 (human): 0 n (%)
- Dysgeusia, All Grades (human): 9%
- Dysgeusia, Grade 1-2 (human): 30 (9) n (%)
- Dysgeusia, Grade 3 (human): 0 n (%)
- Dysgeusia, Grade 3-4 (human): 0%
- Dysgeusia, Grade 4 (human): 0 n (%)
- Dyspepsia, All Grades (human): 5%
- Dyspepsia, Grade 1-2 (human): 15 (5) n (%)
- Dyspepsia, Grade 3 (human): 0 n (%)
- Dyspepsia, Grade 3-4 (human): 0%
- Dyspepsia, Grade 4 (human): 0 n (%)
- Dysphonia, All Grades (human): 4%
- Dysphonia, Grade 1-2 (human): 16 (5) n (%)
- Dysphonia, Grade 3 (human): 0 n (%)
- Dysphonia, Grade 3-4 (human): 0%
- Dysphonia, Grade 4 (human): 0 n (%)
- Dyspnea, All Grades (human): 29%
- Dyspnea, Grade 3-4 (human): 4%
- Dyspnoea, Grade 1-2 (human): 82 (26) n (%)
- Dyspnoea, Grade 3 (human): 11 (3) n (%)
- Dyspnoea, Grade 4 (human): 3 (<1) n (%)
- Edema peripheral, Grade 1-2 (human): 70 (22) n (%)
- Edema peripheral, Grade 3 (human): 6 (2) n (%)
- Edema peripheral, Grade 4 (human): 0 n (%)
- Epistaxis, Grade 1-2 (human): 46 (14) n (%)
- Epistaxis, Grade 3 (human): 0 n (%)
- Epistaxis, Grade 4 (human): 0 n (%)
- Events of arterial thromboembolism (human): 0.3%
- Fatigue, All Grades (human): 47%
- Fatigue, Grade 1-2 (human): 130 (40) n (%)
- Fatigue, Grade 3 (human): 24 (8) n (%)
- Fatigue, Grade 3-4 (human): 7%
- Fatigue, Grade 4 (human): 0 n (%)
- Fatigue, all grades (human): 154 (48%) n (%)
- Fatigue, grade 3 or 4 (human): 24 [7%] n [%]
- Fistulas (human): 0%
- Flatulence, Grade 1-2 (human): 7 (2) n (%)
- Flatulence, Grade 3 (human): 0 n (%)
- Flatulence, Grade 4 (human): 0 n (%)
- GGT increased, All Grades (human): 43%
- GGT increased, Grade 3-4 (human): 9%
- Gastrointestinal (GI) perforations (human): 0.6%
- Grade 3 and 4 adverse events: Diarrhea, % (human): 3%
- Grade 3 or 4 Adverse Events: Diarrhea, % (human): (3) %
- Grade 3 or 4 Adverse Events: Hypokalaemia, % (human): (2) %
- Grade 3 or 4 Adverse Events: PPES, % (human): (1) %
- Grade 3 or 4 adverse events (human): 193 (60%) n (%)
- Grade 5 adverse events regardless of causality (human): 7.8%
- Headache, All Grades (human): 12%
- Headache, Grade 1-2 (human): 42 (13) n (%)
- Headache, Grade 3 (human): 1 (<1) n (%)
- Headache, Grade 3-4 (human): <1%
- Headache, Grade 4 (human): 0 n (%)
- Hemoglobin decreased, All Grades (human): 71%
- Hemoglobin decreased, Grade 3-4 (human): 17%
- Hyperglycemia, All Grades (human): 59%
- Hyperglycemia, Grade 1-2 (human): 46 (14) n (%)
- Hyperglycemia, Grade 3 (human): 16 (5) n (%)
- Hyperglycemia, Grade 3-4 (human): 8%
- Hyperglycemia, Grade 4 (human): 0 n (%)
- Hyperglycemia, grade 3 or 4 (human): 16 [5%] n [%]
- Hypertension, All Grades (human): 8%
- Hypertension, Grade 1-2 (human): 14 (4) n (%)
- Hypertension, Grade 3 (human): 12 (4) n (%)
- Hypertension, Grade 3-4 (human): 3%
- Hypertension, Grade 4 (human): 0 n (%)
- Hypertriglyceridemia, Grade 1-2 (human): 31 (10) n (%)
- Hypertriglyceridemia, Grade 3 (human): 7 (2) n (%)
- Hypertriglyceridemia, Grade 4 (human): 3 (<1) n (%)
- Hypoalbuminemia, All Grades (human): 28%
- Hypoalbuminemia, Grade 3-4 (human): <1%
- Hypomagnesaemia, Grade 1-2 (human): 5 (2) n (%)
- Hypomagnesaemia, Grade 3 (human): 0 n (%)
- Hypomagnesaemia, Grade 4 (human): 0 n (%)
- Hypomagnesemia, All Grades (human): 4%
- Hypomagnesemia, Grade 3-4 (human): <1%
- Hyponatremia, All Grades (human): 26%
- Hyponatremia, Grade 3-4 (human): 6%
- Hypophosphatemia, All Grades (human): 36%
- Hypophosphatemia, Grade 3-4 (human): 5%
- Hypothyroidism, All Grades (human): <1%
- Hypothyroidism, Grade 1-2 (human): 1 (<1) n (%)
- Hypothyroidism, Grade 3 (human): 1 (<1) n (%)
- Hypothyroidism, Grade 3-4 (human): <1%
- Hypothyroidism, Grade 4 (human): 0 n (%)
- Incidence of Grade ≥3 hemorrhagic events (human): 1.6%
- Insomnia, Grade 1-2 (human): 33 (10) n (%)
- Insomnia, Grade 3 (human): 1 (<1) n (%)
- Insomnia, Grade 4 (human): 0 n (%)
- Lymphocytes decreased, All Grades (human): 39%
- Lymphocytes decreased, Grade 3-4 (human): 12%
- Mucosal inflammation, All Grades (human): 23%
- Mucosal inflammation, Grade 1-2 (human): 64 (20) n (%)
- Mucosal inflammation, Grade 3 (human): 10 (3) n (%)
- Mucosal inflammation, Grade 3-4 (human): 3%
- Mucosal inflammation, Grade 4 (human): 1 (<1) n (%)
- Muscle spasms, All Grades (human): 5%
- Muscle spasms, Grade 1-2 (human): 17 (5) n (%)
- Muscle spasms, Grade 3 (human): 0 n (%)
- Muscle spasms, Grade 3-4 (human): 0%
- Muscle spasms, Grade 4 (human): 0 n (%)
- Nausea, All Grades (human): 28%
- Nausea, Grade 1-2 (human): 92 (29) n (%)
- Nausea, Grade 3 (human): 1 (<1) n (%)
- Nausea, Grade 3-4 (human): <1%
- Nausea, Grade 4 (human): 0 n (%)
- Overall incidence of adverse events regardless of causality (human): > 99%
- Pain in extremity, All Grades (human): 8%
- Pain in extremity, Grade 1-2 (human): 31 (10) n (%)
- Pain in extremity, Grade 3 (human): 1 (<1) n (%)
- Pain in extremity, Grade 3-4 (human): <1%
- Pain in extremity, Grade 4 (human): 0 n (%)
- Palmar-plantar erythrodysaesthesia syndrome, Grade 1-2 (human): 16 (5) n (%)
- Palmar-plantar erythrodysaesthesia syndrome, Grade 3 (human): 3 (<1) n (%)
- Palmar-plantar erythrodysaesthesia syndrome, Grade 4 (human): 0 n (%)
- Palmar-plantar erythrodysesthesia syndrome, All Grades (human): 6%
- Palmar-plantar erythrodysesthesia syndrome, Grade 3-4 (human): <1%
- Patients with dose reduced (human): 24%
- Patients with dose reductions (human): 25%
- Platelets decreased, All Grades (human): 27%
- Platelets decreased, Grade 3-4 (human): <1%
- Proteinuria, All Grades (human): 9%
- Proteinuria, Grade 1-2 (human): 28 (9) n (%)
- Proteinuria, Grade 3 (human): 2 (<1) n (%)
- Proteinuria, Grade 3-4 (human): <1%
- Proteinuria, Grade 4 (human): 0 n (%)
- Pruritus, Grade 1-2 (human): 48 (15) n (%)
- Pruritus, Grade 3 (human): 1 (<1) n (%)
- Pruritus, Grade 4 (human): 0 n (%)
- Pulmonary embolism (human): 0.3%
- Pyrexia, Grade 1-2 (human): 57 (18) n (%)
- Pyrexia, Grade 3 (human): 2 (<1) n (%)
- Pyrexia, Grade 4 (human): 0 n (%)
- Rash, All Grades (human): 43%
- Rash, Grade 1-2 (human): 92 (29) n (%)
- Rash, Grade 3 (human): 2 (<1) n (%)
- Rash, Grade 3-4 (human): <1%
- Rash, Grade 4 (human): 0 n (%)
- Serious adverse events ≥grade 3 (human): 129 (40%) n (%)
- Stomatitis, All Grades (human): 24%
- Stomatitis, Grade 1-2 (human): 71 (22) n (%)
- Stomatitis, Grade 3 (human): 7 (2) n (%)
- Stomatitis, Grade 3-4 (human): 2%
- Stomatitis, Grade 4 (human): 0 n (%)
- Study treatment discontinuation due to diarrhea (human): 0.9%
- Treatment discontinuation due to an adverse event not related to disease progression (human): 10%
- Treatment-emergent hypertension (human): 7.1%
- Treatment-emergent hypertension, Grade ≥3 (human): 3.1%
- Triglycerides increased, All Grades (human): 73%
- Triglycerides increased, Grade 3-4 (human): 13%
- Venous thromboembolism (human): 2.5%
- Vomiting, All Grades (human): 14%
- Vomiting, Grade 1-2 (human): 44 (14) n (%)
- Vomiting, Grade 3 (human): 3 (<1) n (%)
- Vomiting, Grade 3-4 (human): <1%
- Vomiting, Grade 4 (human): 0 n (%)
- Weight decreased, All Grades (human): 12%
- Weight decreased, Grade 1-2 (human): 42(13) n (%)
- Weight decreased, Grade 3 (human): 0 n (%)
- Weight decreased, Grade 3-4 (human): 0%
- Weight decreased, Grade 4 (human): 0 n (%)
- White blood cells decreased, All Grades (human): 31%
- White blood cells decreased, Grade 3-4 (human): <1%
- Grade 5 adverse events assessed as treatment-related: two
